Tests used:
H9c2 = assay: Cytotoxicity against rat H9c2 cells assessed as cell viability at 0.001 to 50 uM under normoxia condition by CCK-8 method; format: toxicity, cell-based; details: h9c2, 50 µM, dose 0.001-50 µM
[1] = Drug uptake in lysosomes of rat H9c2 cells assessed as time required for compound concentration in lysosomes to exceed the cell lysates by HPLC analysis; format: ADME, subcellular, Lysosome

Row | Time [1] [min] | SMILES | Activity (H9c2)
1 |  | CCC(CC)O[C@@H]1C=C(C(=O)OCCN2CCNCC2)C[C@H](N)[C@H]1NC(C)=O | Non-Toxic
2 |  | CCC(CC)O[C@@H]1C=C(C(=O)OCCN(C)C)C[C@H](N)[C@H]1NC(C)=O | Non-Toxic
3 | 7.15 | CCC(CC)O[C@@H]1C=C(C(=O)O)C[C@H](N)[C@H]1NC(C)=O [OSELTAMIVIR CARBOXYLATE] | 

From ChEMBL document CHEMBL5614434, “A Lysosome-Targeting hNEU1 Inhibitor Treats Myocardial Infarction: A Potential Therapeutic Breakthrough” (J Med Chem, 2024)
